Test results as given in US20140005165A1, “SUBSTITUTED 3-AZABICYCLO[3.1.0]HEXANE DERIVATIVES USEFUL AS CCR2 ANTAGONISTS” (priority 2011, published 2014).

Biological target: T1, human CCR2 (Homo sapiens, UniProt P41597)
T1 construct: expressed in transfected cells; host or cells: Ba/F3 cells (membrane preparation)
Test: CCR2 Membrane Binding Assay (SPA radio-ligand binding, 125I-rhMCP-1)
Conditions: membranes from Ba/F3 cells transfected with human CCR2, 0.03 nM 125I-rhMCP-1
Method: The radio-ligand binding assay was done using scintillation proximity assay (SPA) technology. Briefly, membranes (1 μg per assay point) from Ba/F3 cells transfected with human CCR2, and wheat germ agglutinin-coated SPA beads (80 μg per point; Amersham, Arlington Heights, Ill.), were pre-incubated for 30 min at room temperature in CCR2 buffer (50 mM HEPES (pH=7.4), 10 mM MgCl2, 10 mM NaCl, 1 mM CaCL2, 0.1% BSA, 10 μg/ml Saponin). At this point pre-bound SPA bead, membrane complex was incubated at room temperature for 4 h with varying concentrations of punitive CCR2 antagonists (in 1% DMSO, final) and 0.03 nM ^125I-rhMCP-1 in CCR2Buffer (S.A. 2200 Ci/mmol, PerkinElmer Life and Analytical Science, Boston, Mass.; NEX332). Binding competition was measured using a 1450 Microbeta Trilux counter (Wallac, Gaithersburg, Md.). Binding constants (IC50 and slope) were calculated using GraphPad Prism software (GraphPad Software, Inc., La Jolla Calif.).

T1 sequence (P41597 whole entry): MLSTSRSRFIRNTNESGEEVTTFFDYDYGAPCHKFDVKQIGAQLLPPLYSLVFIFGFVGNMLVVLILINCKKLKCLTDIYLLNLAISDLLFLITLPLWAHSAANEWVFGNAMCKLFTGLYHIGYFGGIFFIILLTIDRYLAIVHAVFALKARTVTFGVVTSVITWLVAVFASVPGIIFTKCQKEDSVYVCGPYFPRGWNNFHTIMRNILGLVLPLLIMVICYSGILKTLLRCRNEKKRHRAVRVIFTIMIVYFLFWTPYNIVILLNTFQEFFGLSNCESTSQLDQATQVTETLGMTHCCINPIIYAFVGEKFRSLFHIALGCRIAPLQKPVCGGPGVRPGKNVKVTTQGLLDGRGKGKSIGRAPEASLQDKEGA

Row | IC50 (class symbols) [µM] | SMILES | also measured
1 | – | O=C(CNC(=O)[C@H]1[C@@H]2CN(CC3CC3)C[C@@H]21)Nc1cccc(C(F)(F)F)c1 [Compound 158] | IC50 (nM) (class symbols): D (compounds with IC50 values between 701 nM and 110 nM are designated as D class compounds)
2 | 0.051 to 0.2 | O=C(NCCc1cccc(C(F)(F)F)c1)C1[C@H]2CN(C3CCCCC3)C[C@@H]12 (stereo partly drawn) [Compound 1] | –
3 | 0.051 to 0.2 | O=C(CNC(=O)[C@H]1[C@@H]2CN([C@H]3CC[C@@H](c4cnc(O)nc4O)CC3)C[C@@H]21)Nc1cccc(C(F)(F)F)c1 [Compound 134] | –
4 | – | COc1ccc([C@H]2CC[C@H](N3C[C@@H]4[C@H](C3)[C@H]4C(=O)NCC(=O)Nc3cccc(C(F)(F)F)c3)CC2)cc1 [Compound 131] | IC50 (nM) (class symbols): D (compounds with IC50 values between 701 nM and 110 nM are designated as D class compounds)
5 | < 0.05 | COC(=O)[C@H]1CC[C@@H](N2C[C@@H]3[C@H](C2)[C@H]3C(=O)NCC(=O)Nc2cccc(C(F)(F)F)c2)CC1 [Compound 57] | –
6 | 0.051 to 0.2 | Cn1ncc2cc([C@H]3CC[C@H](N4C[C@@H]5[C@H](C4)[C@H]5C(=O)NCC(=O)Nc4cccc(C(F)(F)F)c4)CC3)ccc21 [Compound 151] | –
7 | 0.051 to 0.2 | O=C(CNC(=O)[C@H]1[C@@H]2CN(C3CCCOC3)C[C@@H]21)Nc1cccc(C(F)(F)F)c1 (stereo partly drawn) [Compound 22] | –
8 | 0.201 to 0.7 | O=C1CC2CC(N3C[C@@H]4[C@H](C3)[C@H]4C(=O)NCC(=O)Nc3cccc(C(F)(F)F)c3)CC2C1 (stereo partly drawn) [Compound 44] | –
9 | 0.051 to 0.2 | O=C(CNC(=O)[C@H]1[C@@H]2CN(C3C[C@@H]4CC[C@H]3C4)C[C@@H]21)Nc1cccc(C(F)(F)F)c1 (stereo partly drawn) [Compound 27] | –
10 | 0.201 to 0.7 | O=C([C@H]1[C@@H]2CN([C@H]3CC[C@@H](c4ccccc4)CC3)C[C@@H]21)N1CCC(Nc2ncc(C(F)(F)F)cn2)C1 (stereo partly drawn) [Compound 113] | –
11 | 0.051 to 0.2 | O=C(NCCc1cc(F)cc(C(F)(F)F)c1)[C@H]1[C@@H]2CN([C@H]3CC[C@@H](c4ccccc4)CC3)C[C@@H]21 [Compound 67] | –
12 | 0.201 to 0.7 | O=C(CNC(=O)[C@H]1[C@@H]2CN([C@H]3CC[C@@H](c4cnc(O)nc4)CC3)C[C@@H]21)Nc1cccc(C(F)(F)F)c1 [Compound 118] | –
13 | 0.051 to 0.2 | O=C(NC1Cc2ccc(Br)cc2C1)[C@H]1[C@@H]2CN([C@H]3CC[C@@H](c4ccccc4)CC3)C[C@@H]21 (stereo partly drawn) [Compound 68] | –
14 | 0.201 to 0.7 | FC(F)(F)c1cccc(CN(Cc2cccc(C(F)(F)F)c2)c2nnc([C@H]3[C@@H]4CN([C@H]5CC[C@@H](c6ccccc6)CC5)C[C@@H]43)o2)c1 [Compound 8] | –
15 | 0.201 to 0.7 | O=C(CNC(=O)[C@H]1[C@@H]2CN(C3CC[C@@H](c4ccccc4)C3)C[C@@H]21)Nc1cccc(C(F)(F)F)c1 (stereo partly drawn) [Compound 65] | –
16 | 0.201 to 0.7 | COCC(C)N1C[C@@H]2[C@H](C1)[C@H]2C(=O)NCC(=O)Nc1cccc(C(F)(F)F)c1 (stereo partly drawn) [Compound 15] | –
17 | 0.201 to 0.7 | N#Cc1ccc(C2CCN(C(=O)[C@H]3[C@@H]4CN([C@H]5CC[C@@H](c6ccccc6)CC5)C[C@@H]43)C2)cc1 (stereo partly drawn) [Compound 41] | –
18 | 0.051 to 0.2 | O=C([C@H]1[C@@H]2CN([C@H]3CC[C@@H](c4ccccc4)CC3)C[C@@H]21)N1CC(Oc2ccc(Cl)c(Cl)c2)C1 [Compound 77] | –
19 | 0.201 to 0.7 | O=C(N[C@@H]1CCN(c2nccc(C(F)(F)F)n2)C1)[C@H]1[C@@H]2CN([C@H]3CC[C@@H](c4ccccc4)CC3)C[C@@H]21 [Compound 112] | –
20 | 0.201 to 0.7 | O=C([C@H]1[C@@H]2CN([C@H]3CC[C@@H](c4ccccc4)CC3)C[C@@H]21)N1CC(c2cccc(C(F)(F)F)c2)C1 [Compound 59] | –
21 | 0.051 to 0.2 | O=C([C@H]1[C@@H]2CN([C@H]3CC[C@@H](c4ccccc4)CC3)C[C@@H]21)N1CC[C@@H](Nc2nccc(C(F)(F)F)n2)C1 [Compound 6] | –
22 | – | O=C(CNC(=O)[C@H]1[C@@H]2CN(C3CCSCC3)C[C@@H]21)Nc1cccc(C(F)(F)F)c1 [Compound 35] | IC50 (nM) (class symbols): D (compounds with IC50 values between 701 nM and 110 nM are designated as D class compounds)
23 | 0.201 to 0.7 | O=C(CNC(=O)[C@H]1[C@@H]2CN([C@H]3CC[C@H](c4cccs4)CC3)C[C@@H]21)Nc1cccc(C(F)(F)F)c1 [Compound 100] | –
24 | 0.201 to 0.7 | O=C(NCCc1cccc(C(F)(F)F)c1)C1[C@H]2CN(C3CCCC3)C[C@@H]12 (stereo partly drawn) [Compound 46] | –
25 | 0.201 to 0.7 | O=C(CNC(=O)[C@H]1[C@@H]2CN(C3CCC(O)(c4cncs4)CC3)C[C@@H]21)Nc1cccc(C(F)(F)F)c1 (stereo partly drawn) [Compound 123] | –
26 | 0.051 to 0.2 | CC1CCC(N2C[C@@H]3[C@H](C2)[C@H]3C(=O)NCC(=O)Nc2cccc(C(F)(F)F)c2)CC1 (stereo partly drawn) [Compound 30] | –
27 | < 0.05 | O=C(CNC(=O)[C@H]1[C@@H]2CN(C3CCC(O)(c4cncs4)CC3)C[C@@H]21)Nc1cccc(C(F)(F)F)c1 (stereo partly drawn) [Compound 121] | –
28 | – | Cn1ncc2cc([C@H]3CC[C@@H](N4C[C@@H]5[C@H](C4)[C@H]5C(=O)NCC(=O)Nc4cccc(C(F)(F)F)c4)CC3)ccc21 [Compound 150] | IC50 (4 h room temperature): 0.0067 µM
29 | – | O=C(CNC(=O)[C@H]1[C@@H]2CN([C@H]3CC[C@@H](c4ccncc4)CC3)C[C@@H]21)Nc1cccc(C(F)(F)F)c1 [Compound 83] | IC50 (4 h room temperature): 0.011 µM
30 | 0.051 to 0.2 | O=C(CNC(=O)[C@H]1[C@@H]2CN(C3CCCCC3)C[C@@H]21)Nc1cccc(C(F)(F)F)c1 [Compound 2] | –
